Experimental data: patent US5637085A, “Method of cancer tumor treatment by slow release delivery of 1,2,4-benzotriazine oxides to tumor site” (priority 1995, dated 1997)
“And” between values parts separate entries of the source, which are not always exact repeats. Equal entries are not always repeated.

Columns and labels:
U251 GBM xenograft [1] = experiment: Experiment A: U251 xenograft response to systemic delivery of tirapazamine (mean tumor volume doubling time); format: in vivo, human U251 in male Balb/c athymic nude mice
Experimental: (§1) Tumor Cell line: The human GBM cell line (U251) used in the study was obtained from the DCT Tumor Repository, National Cancer Institute. Cells were cultured in Delbecco's MEM/Ham's F-12 nutrient mixture with 10% fetal bovine serum (GIBCO) and […] (penicillin and streptomycin) in 12×80 mm plastic culture dishes or T25 culture flasks. Cells were incubated (37° C.) in a mixture of 5% carbon dioxide and 95% air. Media were changed twice weekly and cells were passaged at confluence with 0.5% trypsin.
(§2) Nude mouse xenonaft: Six week old male Balb/c athymic nude mice received subcutaneous injections of 4×10^6 (experiment A) and 5×10^6 (experiment B) U251 cells in the left posterior extremity. Tumors were visible after 6 to 8 days. Tumor sizes ranged from 0.51-1.2 cm^3 at the start of the treatment. […] Mice were sacrificed after tumors reached at least twice their original tumor volume.
(§3) Systemic Administration of Tirapazamine: The drug was supplied by Sanoff Winthrop, Collegeville, Pa. Tirapazamine was dissolved in physiological saline at a concentration of […] and intraperitoneal (IP) injections were given in a volume of 0.02 ml/g body weight (0.08 mmole/kg). Animals in experiment A received daily injections, and animals in experiment B received injections twice daily over 3 consecutive days for a total of 6 injections.
(§4) In Vivo Irradiation: A Mark I Irradiator (Model 68, J. L. Shepherd and Assoc.) was used for in vivo irradiation. The dose to the xenograft was calibrated using TLD dosimetry and confirmed with radiochromic dye media (Gafchromic) mouthed in polystyrene mouse phantoms. The tumor bearing flank was selectively irradiated, with shielding of the mouse trunk and head. In experiment A, irradiation began on the first day of IP tirapazamine injection, and animals received 2 Gy×6 consecutive daily fractions. In experiment B, irradiation and systemic tirapazamine administration began one day following polymer disc implantation and animals received 2 Gy twice daily (separated by 5-6 hours) over 3 consecutive days for a total of 6 fractions. Radiation treatments were given 5-20 minutes following IP drag or saline injections.
Tumor Volumetrics: Tumor length (L), width (W), and height (H) were measured twice weekly and tumor volumes were calculated as pi/6×L×W×H. The logarithm of the ratio of this product (V) to the initial product (VO) for each animal was calculated and the mean logarithm of this ratio for each treatment group was plotted versus time. The time of regrowth to twice the original tumor volume (V/VO=2; log V/VO=0.3) for each animal and treatment group was calculated from the plot of log V/VO vs. time. Mean tumor volume doubling time (VDT) was used as the endpoint to determine efficacy of a given treatment arm on U251 xenograft tumors. […]

U251 GBM xenograft [2] = experiment: Experiment B: U251 xenograft response to systemic and intratumoral polymer delivery of tirapazamine (mean tumor volume doubling time); format: in vivo, human U251 in male Balb/c athymic nude mice
Experimental: as §1, §2, §3
Tirapazamine Polymer Formulation: 2 mg tirapazamine and 8 mg PCPP:SA polymer were combined in methylene chloride ([…] wt/wt). The solvents were removed by desiccation under vacuum. The tirapazamine containing polymers were then pressed into discs measuring 3 mm in diameter and 1 mm in height. Each disc weighed 10 mg.
(§5) Implantation of Polymer Discs:. For surgical implantation of polymer discs, animals were anesthetized with methoxyflurane, a skin incision was made next to the xenograft, and an empty disc or tirapazamine disc was inserted in the center of the tumor via a single 3-4 mm incision. The incision was closed using wound clips. Contralateral flank polymer discs were placed subcutaneously using the same technique.
as §4
(§6) Tumor Volumetrics: Tumor length (L), width (W), and height (H) were measured twice weekly and tumor volumes were calculated as pi/6×L×W×H. The logarithm of the ratio of this product (V) to the initial product (VO) for each animal was calculated and the mean logarithm of this ratio for each treatment group was plotted versus time. The time of regrowth to twice the original tumor volume (V/VO=2; log V/VO=0.3) for each animal and treatment group was calculated from the plot of log V/VO vs. time. Mean tumor volume doubling time (VDT) was used as the endpoint to determine efficacy of a given treatment arm on U251 xenograft tumors. Each animal was weighed bi-weekly to assess possible toxicity to treatment.
Outcomes among experimental groups were compared using the two tailed Student's test.
Intralesional delivery of tirapazamine by polymer implants: After establishing the antitumor effect of systemic administration of tirapazamine on GBM xenografts, experiment B was done to evaluate intralesional polymer delivery of tirapazamine alone or combined with irradiation. […]

[3] = Toxicity, experiment B: mean low and final animal weights as a fraction of the pretreatment weight; format: in vivo, male Balb/c athymic nude mice
Source text: as §2, §3, §5, §4, §6
The weight losses were transient, with all groups exceeding their pretreatment weights prior to sacrifice.

[4] = tested on: mouse squamous cell VII tumors; details: cited from earlier work
[5] = tested on: FSalIC Murine Fibrosarcoma; details: SR-4233 just before single-dose cyclophosphamide, carmustine or melphalan; cited from earlier work
[6] = tested on: mouse SCCVII and other tumors; details: multiple injections in conjunction with fractionated irradiation; cited from earlier work
[7] = contralateral flank drug implant and tumor empty implant + radiation, group 4
[8] = tumor drug implant + IP tirapazamine + radiation, group 7
[9] = tumor drug implant + IP tirapazamine, no radiation, group 2
[10] = tumor drug implant + radiation, group 5
[11] = tumor empty implant + IP tirapazamine + radiation, group 6
[12] = within one hour of injecting tirapazamine

In the case of `Nc1n[n+]([O-])c2ccccc2[n+]1[O-]` [tirapazamine, 3-amino-1,2,4-benzotriazine-1,4-dioxide], the “effect on mean volume doubling time (VDT)” value (U251 GBM xenograft [1]; IP tirapazamine alone, no radiation) is reported as “no effect”, the “Mean xenograft tumor volume doubling time (VDT) ± SEM” value (U251 GBM xenograft [1]; IP tirapazamine daily × 6 (0.08 mmole/kg) plus radiation 2Gy daily × 6, group 4) is reported as 35 days and 35 ± 2.5 days and the “Mean xenograft tumor volume doubling time (VDT) ± SEM” value (U251 GBM xenograft [1]; IP tirapazamine daily × 6 (0.08 mmole/kg), no radiation, group 2) is reported as 12 days and 12 ± 0.6 days. For the same compound, the “lengthening of mean VDT” value (U251 GBM xenograft [1]; fractionated radiation (2 Gy×6) plus IP tirapazamine, 12 days for fractionated radiation alone) was 25 days, the “Mean xenograft tumor doubling time (VDT) ± SEM” value (U251 GBM xenograft [2]; contralateral flank drug implant and tumor empty implant + radiation 2Gy bid × 3 days, group 4) was 16.4 ± 1.57 days and the growth delay (U251 GBM xenograft [2]; group 7 vs IP tirapazamine alone plus radiation, P=0.016) was 11.8 days. For the same compound, the growth delay (U251 GBM xenograft [2]; group 7 vs tumor drug implant alone plus radiation, P=0.004) was 12.8 days, the growth delay (U251 GBM xenograft [2]; tumor drug implant + IP tirapazamine + radiation (group 7) vs radiation alone controls, P<0.001) was 16.5 days and the “Mean xenograft tumor doubling time (VDT) ± SEM” value (U251 GBM xenograft [2]; tumor drug implant + IP tirapazamine bid + radiation 2Gy bid × 3 days, group 7) was 35.8 ± 2.0 days. The “Mean xenograft tumor doubling time (VDT) ± SEM” value (U251 GBM xenograft [2]; tumor drug implant + IP tirapazamine bid, no radiation, group 2) was 10.5 ± .87 days, the growth delay (U251 GBM xenograft [2]; tumor drug implant + IP tirapazamine, no radiation vs tumor empty polymer implant (group 1), P=0.15) was 3.5 days and the “Mean xenograft tumor doubling time (VDT) ± SEM” value (U251 GBM xenograft [2]; tumor drug implant + radiation 2Gy bid × 3 days, no IP tirapazamine, group 5) was 23.0 ± 2.49 days. The growth delay (U251 GBM xenograft [2]; tumor drug implant plus radiation (group 5) vs tumor empty implant plus contralateral drug implant with radiation, P=0.055) was 6.6 days, the growth delay (U251 GBM xenograft [2]; tumor drug implant plus radiation (group 5) vs tumor empty polymer implant plus radiation, P=0.24) was 3.7 days and the “Mean xenograft tumor doubling time (VDT) ± SEM” value (U251 GBM xenograft [2]; tumor empty implant + IP tirapazamine bid + radiation 2Gy bid × 3 days, group 6) was 24.8 ± 3.0 days. For the same compound, the growth delay (U251 GBM xenograft [2]; tumor empty implant + IP tirapazamine with radiation (group 6) vs tumor empty implant plus radiation, P=0.15) was 5.5 days, the “systemic toxicity (weight loss)” value ([3]; combination of IP and polymer tirapazamine, transient, toxicity primarily associated with the IP treatments) was “produced systemic toxicity” and the “Final body weight/Pretreatment weight (± SEM)” value [3, 7] was 1.08 ± .02. For the same compound, the “Low weight post treatment/Pretreatment weight (± SEM)” value [3, 7] was 0.96 ± .02, the “Final body weight/Pretreatment weight (± SEM)” value [3, 8] was 1.06 ± .03 and the “Low weight post treatment/Pretreatment weight (± SEM)” value [3, 8] was 0.85 ± .03. For the same compound, the “Final body weight/Pretreatment weight (± SEM)” value [3, 9] was 1.05 ± .04, the “Low weight post treatment/Pretreatment weight (± SEM)” value [3, 9] was 0.95 ± .01 and the “Final body weight/Pretreatment weight (± SEM)” value [3, 10] was 1.06 ± .01. For the same compound, the “Low weight post treatment/Pretreatment weight (± SEM)” value [3, 10] was 0.95 ± .01, the “Final body weight/Pretreatment weight (± SEM)” value [3, 11] was 1.09 ± .03 and the “Low weight post treatment/Pretreatment weight (± SEM)” value [3, 11] was 0.89 ± .01. The “time of return of hypoxic fraction to pretreatment levels” value ([4]; after injecting tirapazamine) was 3 to 5 h, the hypoxic fraction [4, 12] was 0.57% and the “hypoxic fraction, % of pretreatment levels” value [4, 12] was “about 7%”. The “cytotoxic effects on tumor cells in combination with alkylating agents” value [5] was “marked dose enhancement leading to synergistic cytotoxic effects on tumor cells” and the “tumor cell kill with fractionated irradiation” value [6] was “increases tumor cell kill while sparing normal tissue”.
